One assay addresses A. baumannii FabI (Acinetobacter baumannii, UniProt D0CAD5). The experiment in a line: Differential scanning fluorimetry. Format: binding. The settings on record: relative to the holoenzyme. Here is the method:
supplemented with 100 µg/mL ampicillin at 37°C until OD600 reached 0.6-0.7. The cells were induced with 1mM IPTG and incubated for 20 hours at 18°C and spun down at 8000 rpm for 15 minutes. Cell pellet was resuspended in the lysis buffer (50 mM Tris-HCl pH 8.0, 500 mM Na Cl, 20 mM imidazole, 10% glycerol, 0.5 mM TCEP, protease inhibitor and Lysonase) and passed through microfluidizer followed by centrifugation and filtration to remove cell debris. The clarified lysate was supplemented with 20 mM imidazole and passed over a HisTrap column (Cytiva) pre-equilibrated with the wash buffer (50 mM Tris-HCl pH 8.0, 500 mM NaCl, 20 mM imidazole, 10% glycerol, 0.5 mM TCEP). The column was washed with the wash buffer and eluted over a 20-500 mM imidazole gradient. […]
Recombinant E. coli and A. baummani FabI enzymes were used in a continuous NADH absorbance assay (20 µL in 384w format). […] After shaking for 5 seconds the reaction was monitored at NADH absorbance (340nm, 25°C) using a Molecular Devices SpectraMax M5 microplate reader. The linear portion of the progress curve was fit using plate-reader software. Percentage activity was calculated relative to DMSO only and no-substrate controls in each plate and the data were fit to Morrison’s quadratic using Graphpad Prism 9.3 to obtain apparent inhibition constant (Ki app) values. […]
A general note: DSF heats the sample and reads unfolding from a dye or from intrinsic fluorescence.

Assay [1] concerns Bacteroides fragilis ATCC 25285. The assay can be described thus: MIC, commensal bacteria. The class given is cell-based. The settings on record: ATCC25285. Here is the method:
(§1) II. Materials and Methods for Biological Experiments
(§2) S. aureus ATCC 29213 and E. coli MG1655 were obtained from the American Type Culture Collection (ATCC). E. coli BW25113 and E. coli JW5503 were obtained from the Keio Collection. AR-bank strains were obtained from the Centers for Disease Control and Prevention and FDA Antibiotic Resistance Isolate Bank.
(§3) Antimicrobial susceptibility tests
(§4) Susceptibility testing was performed in biological triplicate, unless noted otherwise, using the micro-dilution broth method as outlined by the Clinical and Laboratory Standards Institute. Bacteria were cultured with cation-adjusted Mueller Hinton broth (Sigma Aldrich, catalogue number: 90922). […]
(§5) Error bars represent the standard error of the mean of three biological replicates. All compounds evaluated in biological assays were ≥95% pure.

Assay [2] relates to Stenotrophomonas maltophilia ATCC 13637. The assay can be described thus: MIC, commensal bacteria. The class given is cell-based. Particulars: ATCC13637. Here is the method: as §1, §2, §3, §4, §5
In assay [3] the test system is Streptococcus salivarius KLE 2370. The experiment in a line: MIC, commensal bacteria. Format: cell-based. The settings on record: KLE2370. Here is the method:
as §1, §2, §3, §4, §5

Broadly, the ΔTm is the shift of the melting midpoint relative to a reference. As a reminder, the MIC is the lowest concentration that inhibits growth of the organism. Read a low MIC as greater potency.

Molecules are shown by their SMILES. Values after ≈ are worked out from the molar mass of the structure shown.

Sequence of A. baumannii FabI (D0CAD5 entry or part of it): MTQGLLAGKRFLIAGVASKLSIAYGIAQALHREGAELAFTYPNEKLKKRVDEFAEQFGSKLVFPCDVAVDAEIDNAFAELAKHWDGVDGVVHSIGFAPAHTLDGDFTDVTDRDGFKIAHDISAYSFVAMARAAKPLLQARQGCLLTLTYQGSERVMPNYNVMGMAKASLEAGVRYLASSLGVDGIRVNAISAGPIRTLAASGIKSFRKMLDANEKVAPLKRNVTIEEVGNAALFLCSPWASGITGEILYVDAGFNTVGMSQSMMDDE

Regarding `Cc1c(CN(C)C(=O)/C=C/c2cnc3c(c2)CC[C@@H](N)C(=O)N3)oc2ccccc12` [(R)-7], the ΔTm at A. baumannii FabI came to 18 ± 0.5 °C.
For the molecule `Cc1c(CN(C)C(=O)/C=C/c2cnc3c(c2)CC[C@H](N)C(=O)N3)oc2ccccc12` [fabimycin], the values for the minimal inhibitory concentration (MIC) in assay [1], in assay [2] and in assay [3] were above 128 µg/mL, 128 µg/mL (≈ 316 µM) and above 128 µg/mL, respectively. Besides, the ΔTm at A. baumannii FabI was 24 ± 0.5 °C.

These data come from publication PMC9413440, “An Iterative Approach Guides Discovery of the FabI Inhibitor Fabimycin, a Late-Stage Antibiotic Candidate with In Vivo Efficacy against Drug-Resistant Gram-Negative Infections” (ACS Central Science, 2022).
